Test results from patent US20150315218A1, “SALTS OF PRODRUGS OF PIPERAZINE AND SUBSTITUTED PIPERIDINE ANTIVIRAL AGENTS” (Bristol-Myers Squibb Company, priority 2004, published 2015).
Like-named read-outs stand apart in the source and are kept apart here.

Experiments:
[1] = Single-dose oral toxicokinetic study of prodrugs in rats; type: in vivo, rat; conditions: for concentration at 24 h / Cmax / AUC / half-life: male, Sprague Dawley, rat, plasma; for concentration at 24 h: oral, read-out: C24h; for Cmax / AUC / half-life: po; for AUC: read-out: AUC from zero to ∞; for half-life: read-out: T1/2 (converted)
Procedure: A 1-day oral toxicokinetic study in rats was conducted using the prodrug Iab (monolysine salt). Iab was administered at dosages of 16, 72, and 267 mg/kg (free acid) by oral gavage to three male rats/group using water as the vehicle (solution formulation). The dosages of prodrug free acid correspond to IVa (parent) molar equivalent dosages of 13, 57, and 211 mg/kg, respectively. The endpoint evaluated was plasma toxicokinetics of Iab and IVa in the individual rats.
A 1-day oral toxicokinetic study in rats was conducted by using the prodrug Ibb (monolysine salt). Ibb was administered at dosages of 19, 64, and 236 mg/kg (free acid) by oral gavage to three male rats/group using water as the vehicle (solution formulation).
A 1-day oral toxicokinetic study in rats was conducted using the prodrug Icb (disodium salt). Icb was administered at dosages of 5, 25, and 200 mg/kg (free acid) by oral gavage to three male rats/group using water as the vehicle (solution formulation).

[2] = IV and PO pharmacokinetic studies of prodrug salts (Iab, Ibb, Icb) in the monkey, with historical parent data; type: in vivo, cynomolgus monkeys; conditions: cynomolgus monkey, plasma; for AUC: read-out: AUCtot; for half-life: read-out: T1/2 (converted)
Procedure: The IV and PO studies of Iab were conducted in a crossover fashion in three male cynomolgus monkeys (11±1.2 kg, Charles River Biomedical Research Foundation, Houston, Tex.). There was a two-week washout period between the IV and PO studies.
In the IV study, Iab was infused via the femoral vein at 1.3 mg/kg (free acid, or 1.1 mg/kg of IVa equivalent) over 5 min at a constant rate of 0.1 mL/kg/min. The concentration of the dosing solution was 2.6 mg/mL, and the dosing volume was 0.5 mL/kg. Serial blood samples were collected from the femoral artery before dosing and at 5, 10, 15, 30, 45 min, 1, 2, 4, 6, 8 and 24 hr after dosing.
In the PO study, the monkeys were fasted overnight before dosing. Iab was administered by oral gavage at 7.1 mg/kg (free acid, or 5.6 mg/kg of IVa equivalent). The concentration of the dosing solution was 14.2 mg/mL, and the dosing volume was 0.5 mL/kg. Serial blood samples were collected before dosing and at 15, 30, 45 min, 1, 2, 4, 6, 8 and 24 hr after dosing.
The IV and PO studies of Ibb were conducted in a crossover fashion in three male cynomolgus monkeys (9.9±2.4 kg, Charles River Biomedical Research Foundation, Houston, Tex.). There was a two-week washout period between the IV and PO studies.
The concentration of the dosing solution was 2.7 mg/mL, and the dosing volume was 0.5 mL/kg. Serial blood samples were collected from the femoral artery before dosing and at 5, 10, 15, 30, 45 min, 1, 2, 4, 6, 8 and 24 hr after dosing.
In the PO study, the monkeys were fasted overnight before dosing. […] The concentration of the dosing solution was 5.8 mg/mL, and the dosing volume was 1 mL/kg. Serial blood samples were collected before dosing and at 15, 30, 45 min, 1, 2, 4, 6, 8 and 24 hr after dosing.
The IV and PO studies of Icb were conducted in a crossover fashion in three male cynomolgus monkeys (10±1.6 kg, Charles River Biomedical Research Foundation, Houston, Tex.). There was a two-week washout period between the IV and PO studies.
The concentration of the dosing solution was 2.8 mg/mL, and the dosing volume was 0.5 mL/kg. Serial blood samples were collected from the femoral artery before dosing and at 5, 10, 15, 30, 45 min, 1, 2, 4, 6, 8 and 24 hr after dosing.
In the PO study, the monkeys were fasted overnight before dosing. […] The concentration of the dosing solution was 9.8 mg/mL, and the dosing volume was 0.5 mL/kg. Serial blood samples were collected before dosing and at 15, 30, 45 min, 1, 2, 4, 6, 8 and 24 hr after dosing.

[3] = Single-dose toxicokinetic and tolerability study of prodrugs in dogs; type: in vivo, dog; conditions: for concentration at 24 h / AUC(0-inf) / half-life: dog, plasma; for concentration at 24 h: oral, read-out: C24h; for AUC(0-inf) / half-life: po; for half-life: read-out: T1/2 (converted)
Procedure: A multi-phase study was conducted to evaluate the tolerability of the prodrug, Iab (monolysine salt) at dosages of 24, 90, or 240 mg/kg (free acid, molar equivalent to 19, 71, or 190 mg/kg of parent IVa, respectively) and the toxicokinetics of lab and IVa (4). Iab was administered to two female dogs/group once daily either as an aqueous solution (24 or 90 mg/kg) or dry-filled capsules (24, 90 [once and twice daily] or 240 mg/kg). The endpoints were: clinical signs, body weight, food consumption, and plasma toxicokinetics of lab and IVa. In all cases, a 1-week washout period was used between doses for all phases of the study. […]
On day 1, Icb was administered to one dog/sex/group once daily in dry-filled capsules at the above dosages. A 1-week washout period was used between doses in the study. On day 8, Icb was administered to one dog/sex/group once daily as an aqueous solution at 25 mg/kg or twice daily in dry-filled capsules at 46 or 125 mg/kg BID.

[4] = female, 25 mg/kg, dog 2201F, day 1, Ibb 25 mg/kg QD dry-filled capsules
[5] = female, 25 mg/kg, dog 2201F, day 8, Ibb 25 mg/kg QD aqueous solution
[6] = female, 92 mg/kg, dog 3201F, day 1, Ibb 92 mg/kg QD dry-filled capsules
[7] = female, 250 mg/kg, dog 4201F, day 1, Ibb 250 mg/kg QD dry-filled capsules
[8] = male, 25 mg/kg, dog 2101M, day 1, Ibb 25 mg/kg QD dry-filled capsules
[9] = male, 25 mg/kg, dog 2101M, day 8, Ibb 25 mg/kg QD aqueous solution
[10] = male, 92 mg/kg, dog 3101M, day 1, Ibb 92 mg/kg QD dry-filled capsules
[11] = male, 250 mg/kg, dog 4101M, day 1, Ibb 250 mg/kg QD dry-filled capsules

AUC ([2]; iv, 1 mg/kg): 10 ± 1.2 µM·h | clearance ([2]; iv, 1 mg/kg, read-out: CLtot): 3.7 ± 0.43 mL/min/kg | MRT ([2]; iv, 1 mg/kg, read-out: MRT): 5.6 ± 6.3 h | half-life ([2]; iv, 1 mg/kg): 19 ± 20 h | Vd ([2]; iv, 1 mg/kg, read-out: Vdss): 1.2 ± 1.4 L/kg | concentration at 24 h ([2]; oral, 5 mg/kg, read-out: C-24 hr): 240 nM | AUC ([2]; po, 5 mg/kg): 24 µM·h | Cmax ([2]; po, 5 mg/kg, read-out: Cmax): 4200 nM | half-life ([2]; po, 5 mg/kg): 11 h | bioavailability ([2]; monkey, historical parent, PO 5 mg/kg, read-out: Bioavailability (%)): 49% | Tmax ([2]; monkey, historical parent, PO 5 mg/kg, read-out: Tmax (hr), PO): 2.5 h | half-life ([2]; male, iv, […]): 6.5 ± 2.4 h | bioavailability ([2]; male, oral, […], read-out: Bioavailability): 187% | half-life ([2]; male, po, […]): 4.1 ± 1.1 h | Tmax ([2]; male, po, […], read-out: Tmax): 1.5 ± 0.87 h | bioavailability ([2]; male, monkey, oral prodrug, read-out: Bioavailability (%) of parent from prodrug): 187% | Tmax ([2]; male, monkey, parent after oral prodrug (~4-6 mg/kg parent equivalent), read-out: Tmax (hr), PO): 1.5 h
Structure (SMILES): O=C(C(=O)N1CCN(C(=O)c2ccccc2)CC1)c1c[nH]c2c(-n3ccnn3)ncc(F)c12 [IVb]
concentration at 24 h ([1]; 19 mg/kg (free acid)): 48 nM | concentration at 24 h ([1]; 64 mg/kg (free acid)): 290 nM | concentration at 24 h ([1]; 236 mg/kg (free acid)): 29000 nM | Cmax ([1]; 19 mg/kg): 58000 nM | AUC ([1]; 19 mg/kg): 283 µM·h | half-life ([1]; 19 mg/kg): 2.1 h | Cmax ([1]; 64 mg/kg): 135000 nM | AUC ([1]; 64 mg/kg): 997 µM·h | half-life ([1]; 64 mg/kg): 2.1 h | Cmax ([1]; 236 mg/kg): 290000 nM | AUC ([1]; 236 mg/kg): 3700 µM·h | half-life ([1]; 236 mg/kg): 5.8 h | time post-dose at which mean maximum plasma concentration (Cmax) was achieved ([1]; rats, single oral dose of prodrug): 1 to 3 h | time post-second dose at which mean Cmax of parent was achieved ([3]; dogs, BID dosing of prodrug): 1 to 2 h | time post-dose at which mean Cmax of parent was achieved ([3]; dogs, once daily (QD) dosing of prodrug): 1 to 4 h | concentration at 24 h [3, 4]: 688 nM | concentration at 24 h [3, 5]: 107 nM | concentration at 24 h ([3]; female, 46 mg/kg, dog 3201F, day 8, Ibb 46 mg/kg BID dry-filled capsules): 307 nM | concentration at 24 h [3, 6]: 202 nM | concentration at 24 h ([3]; female, 125 mg/kg, dog 4201F, day 8, Ibb 125 mg/kg BID dry-filled capsules): 1960 nM | concentration at 24 h [3, 7]: 704 nM | AUC(0-inf) [3, 4]: 136 µM·h | half-life [3, 4]: 4.5 h | AUC(0-inf) [3, 5]: 139 µM·h | AUC(0-inf) ([3]; female, 46 mg/kg, dog 3201F, day 8, Ibb 46 mg/kg BID dry-filled capsules, emesis): 1050 µM·h | AUC(0-inf) ([3]; female, 92 mg/kg, dog 3201F, day 1, Ibb 92 mg/kg QD dry-filled capsules, emesis): 329 µM·h | half-life [3, 6]: 2.3 h | AUC(0-inf) ([3]; female, 125 mg/kg, dog 4201F, day 8, Ibb 125 mg/kg BID dry-filled capsules, emesis): 978 µM·h | AUC(0-inf) ([3]; female, 250 mg/kg, dog 4201F, day 1, Ibb 250 mg/kg QD dry-filled capsules, emesis): 745 µM·h | half-life [3, 7]: 3.2 h | concentration at 24 h [3, 8]: 8 nM | concentration at 24 h [3, 9]: 547 nM | concentration at 24 h ([3]; male, 46 mg/kg, dog 3101M, day 8, Ibb 46 mg/kg BID dry-filled capsules): 10600 nM | concentration at 24 h [3, 10]: 1900 nM | concentration at 24 h ([3]; male, 125 mg/kg, dog 4101M, day 8, Ibb 125 mg/kg BID dry-filled capsules): 54200 nM | concentration at 24 h [3, 11]: 2610 nM | AUC(0-inf) [3, 8]: 259 µM·h | half-life [3, 8]: 1.5 h | AUC(0-inf) [3, 9]: 324 µM·h | half-life [3, 9]: 3.3 h | AUC(0-inf) ([3]; male, 46 mg/kg, dog 3101M, day 8, Ibb 46 mg/kg BID dry-filled capsules, emesis): 478 µM·h | AUC(0-inf) ([3]; male, 92 mg/kg, dog 3101M, day 1, Ibb 92 mg/kg QD dry-filled capsules, emesis): 111 µM·h | half-life [3, 10]: 3.6 h | AUC(0-inf) ([3]; male, 125 mg/kg, dog 4101M, day 8, Ibb 125 mg/kg BID dry-filled capsules, emesis): 1390 µM·h | AUC(0-inf) ([3]; male, 250 mg/kg, dog 4101M, day 1, Ibb 250 mg/kg QD dry-filled capsules, emesis): 334 µM·h | half-life [3, 11]: 4.1 h
